In patent US8685924B2, “Preventives/remedies for stress urinary incontinence and method of screening the same” (Takeda Pharmaceutical Company Limited, priority 2004, dated 2014):

Assays:
Format in all cases: in vivo, rat
[1] = tested on: urethane-anesthetized female rats; experiment: Leak point pressure by abdominal wall electrostimulation, rats with nerve to iliococcygeus/pubococcygeus muscle transected on one side (Example 2); details: for leak point pressure after drug administration / leak point pressure increase / leak point pressure before drug administration: i.v., mean ± SEM; for leak point pressure before drug administration: baseline
Method: SD female rats (body weight 180-350 g) were anesthetized with urethane (Wako Pure Chemical Industries, Ltd.), and the spinal cord was cut at T8-9 level to eliminate the reflex voiding. In addition, the nerve to the iliococcygeus muscle/pubococcygeus muscle on the one side was transected. During operation, halothane (Takeda Pharmaceutical Company Limited) anesthesia was added when necessary. A catheter (PE-90, Clay Adams) was inserted into the bladder and secured with a ligature, and the incised part of each of the abdominal muscle and skin was closed with sutures. The abdominal skin near the diaphragm was incised at two left and right positions to newly expose the abdominal muscle. An Evans Blue dye (Merck) solution was injected into the bladder, and the bladder volume was adjusted to 0.2-0.3 ml. The bladder catheter was connected to a pressure transducer, and the signals of the transducer were sent to a computer via an amplifier (blood pressure amplification unit AP-641G; NIHON KOHDEN) and an analog-to-digital converter (BIOPAC; MP100), and recorded on a hard disc. The data were analyzed on a computer using software (BIOPAC; AcqKnowledge). The exposed abdominal muscle was electrostimulated using an electrostimulator (SEN-3301; NIHON KODEN) and an isolator (SS-202J; NIHON KODEN), and the presence or absence of incontinence from the urethral orifice was observed. The electrostimulation was applied at a voltage of 3-50 V, duration of 0.05-0.5 milisec, and frequency 50 Hz for 1 sec, thereby gradually increasing the intravesical pressure. The peak intravesical pressure during stimulation of the abdominal wall was measured and, of the trials with observed incontinence, the lowest peak intravesical pressure was defined as the leak point pressure. The leak point pressure was compared before and after the duloxetine and midodrine administration. Duloxetine was dissolved in […] (DMA)/polyethylene glycol 400 (PEG400) (1:1), and intravenously administered at 0.5 ml/kg. Midodrine (hydrochloride, Sigma) was dissolved in saline and intravenously administered at 1 ml/kg.

[2] = tested on: urethane-anesthetized female rats; experiment: Leak point pressure by abdominal wall-electrically stimulating method, serotonin 5-HT receptor agonists (Example 3); details: for leak point pressure after drug administration / leak point pressure increase / leak point pressure before drug administration: i.v., mean ± SEM; for leak point pressure before drug administration: baseline
Method: (§1) SD female rats (body weight 180-350 g) were anesthetized with urethane (Wako Pure Chemical Industries, Ltd.), and the spinal cord was transected at T8-9 level to eliminate the reflex voiding. In addition, the nerve to the iliococcygeus muscle/pubococcygeus muscle on the one side was transected. During operation, halothane (Takeda Pharmaceutical Company Limited) anesthesia was added when necessary. A catheter (PE-90, Clay Adams) was inserted into the bladder and secured with a ligature, and the incised part of each of the abdominal muscle and skin was closed with sutures. The abdominal skin near the diaphragm was incised at two left and right positions to newly expose the abdominal muscle. An Evans Blue dye (Merck) solution was injected into the bladder, and the bladder volume was adjusted to 0.2-0.3 ml. The bladder catheter was connected to a pressure transducer, and the signals of the transducer were sent to a computer via an amplifier (blood pressure amplification unit AP-641G; NIHON KOHDEN) and an analog-to-digital converter (BIOPAC; MP100), and recorded on a hard disc. The data were analyzed on a computer using software (BIOPAC; AcqKnowledge). The exposed abdominal muscle was electrostimulated using an electrostimulator (SEN-3301; NIHON KODEN) and an isolator (SS-202J; NIHON KODEN), and the presence or absence of incontinence from the meatus urethra was observed. The electrostimulation was applied at a voltage of 2.5-50 V, duration of 0.5 milisec, and frequency 50 Hz for 1 sec, thereby gradually increasing the intravesical pressure. The peak intravesical pressure during stimulation of the abdominal wall was measured and, of the trials with observed incontinence, the lowest peak intravesical pressure was defined as the leak point pressure. Serotonin 5-HT receptor agonist, WAY-161503 (5-HT2C receptor agonist), WAY-163909 (5-HT2C receptor agonist), DOI (5-HT2A/2B/2C receptor agonist), mCPP (5-HT2B/2C receptor partial agonist), eltoprazine (5-HT1A/1B/2C receptor partial agonist), 8-OH-DPAT (5-HT1A receptor agonist), sumatryptan (5-HT1B/1D receptor agonist) and BW723C86 (5-HT2B receptor agonist) were intravenously administered, and the leak point pressure was compared before and after the administration. DOI, mCPP and eltoprazine were dissolved in saline, and other drugs were dissolved in DMA/PEG400 (1:1), and they were intravenously administered at 1 ml/kg and 0.5 mg/kg, respectively. Depending on the experiment, RS-102221 (serotonin 5-HT2C receptor antagonist) or SB221284 (serotonin 5-HT2B/2C receptor antagonist) was intravenously administered 5 min before WAY-161503 or WAY-163909 administration, and an antagonistic effect against the WAY-161503 or WAY-163909-induced increment of the leak point pressure was examined. RS-102221 and SB221284 were both dissolved in DMA/PEG400 (1:1) and intravenously administered at 0.5 ml/kg.

[3] = tested on: urethane-anesthetized female rats; experiment: Antagonism of the leak point pressure increase by WAY-161503 / WAY-163909, abdominal wall-electrically stimulating method (Example 3); details: agonist 0.3 mg/kg, i.v., antagonist: solvent, mean ± SEM
Method: as §1

Q: How did the “leak point pressure after drug administration” value ([1]; 0.3 mg/kg) turn out when `CNCC[C@H](Oc1cccc2ccccc12)c1cccs1` [duloxetine] was run?
A: 48.3 ± 7.9 cmH2O

Q: And the “leak point pressure increase” value ([1]; 0.3 mg/kg)?
A: 2.4 ± 4.3 cmH2O

Q: And the “leak point pressure after drug administration” value ([1]; 1 mg/kg)?
A: 53.0 ± 4.8 cmH2O

Q: And the “leak point pressure increase” value ([1]; 1 mg/kg)?
A: 8.1 ± 2.3 cmH2O

Q: What about the “leak point pressure after drug administration” value ([1]; 3 mg/kg) of the same compound?
A: 61.4 ± 3.9 cmH2O

Q: And the “leak point pressure increase” value ([1]; 3 mg/kg)?
A: 12.9 ± 3.2 cmH2O

Q: What about the “leak point pressure after drug administration” value ([1]; 10 mg/kg) of the same compound?
A: 53.0 ± 8.8 cmH2O

Q: And the “leak point pressure increase” value ([1]; 10 mg/kg)?
A: 13.0 ± 2.5 cmH2O

Q: And the “leak point pressure before drug administration” value ([1]; dose group 0.3 mg/kg)?
A: 45.9 ± 5.4 cmH2O

Q: And the “leak point pressure before drug administration” value ([1]; dose group 1 mg/kg)?
A: 44.9 ± 5.9 cmH2O

Q: What about the “leak point pressure before drug administration” value ([1]; dose group 3 mg/kg) of the same compound?
A: 48.5 ± 4.8 cmH2O

Q: And the “leak point pressure before drug administration” value ([1]; dose group 10 mg/kg)?
A: 40.0 ± 7.3 cmH2O

Q: What about the “effect on leak point pressure, comparison before and after administration” value ([1]; intravenously administered) of the same compound?
A: significant increase in the leak point pressure

Q: `O=C1Nc2cc(Cl)c(Cl)cc2N2CCNCC12` (stereo not drawn) [WAY-161503] was tested. Which “leak point pressure after drug administration” value ([2]; 0.03 mg/kg) did it give?
A: 58.7 ± 6.8 cmH2O

Q: What about the “leak point pressure increase” value ([2]; 0.03 mg/kg) of the same compound?
A: 9.7 ± 2.9 cmH2O

Q: And the “leak point pressure after drug administration” value ([2]; 0.1 mg/kg)?
A: 59.5 ± 4.9 cmH2O

Q: And the “leak point pressure increase” value ([2]; 0.1 mg/kg)?
A: 12.6 ± 2.8 cmH2O

Q: And the “leak point pressure after drug administration” value ([2]; 0.3 mg/kg)?
A: 68.1 ± 6.8 cmH2O

Q: What about the “leak point pressure increase” value ([2]; 0.3 mg/kg) of the same compound?
A: 19.6 ± 4.4 cmH2O

Q: What about the “leak point pressure after drug administration” value ([2]; 1 mg/kg) of the same compound?
A: 80.1 ± 2.7 cmH2O

Q: What about the “leak point pressure increase” value ([2]; 1 mg/kg) of the same compound?
A: 30.7 ± 3.5 cmH2O

Q: And the “leak point pressure before drug administration” value ([2]; dose group 0.03 mg/kg)?
A: 49.0 ± 8.0 cmH2O

Q: And the “leak point pressure before drug administration” value ([2]; dose group 0.1 mg/kg)?
A: 46.9 ± 4.6 cmH2O

Q: What about the “leak point pressure before drug administration” value ([2]; dose group 0.3 mg/kg) of the same compound?
A: 48.5 ± 5.2 cmH2O

Q: And the “leak point pressure before drug administration” value ([2]; dose group 1 mg/kg)?
A: 49.4 ± 1.4 cmH2O

Q: And the “dose at which a significant effect on the leak point pressure was afforded” value ([2]; intravenous administration)?
A: not less than 0.03 mg/kg

Q: And the “effect on leak point pressure” value ([2]; intravenous administration)?
A: dose-dependently increased the leak point pressure

Q: And the “leak point pressure after drug administration” value [3]?
A: 76.6 ± 5.4 cmH2O

Q: What about the “leak point pressure increase” value [3] of the same compound?
A: 27.8 ± 2.8 cmH2O

Q: And the “leak point pressure before drug administration” value ([3]; baseline)?
A: 48.7 ± 5.3 cmH2O
